Settings in all cases: Compound Concentration 10.0 uM, Hit No
The target of test [1] is DNA-3-methyladenine glycosylase (Homo sapiens) (UniProt P29372).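 Note: enzyme assay where MPG cuts a quenched duplex DNA oligonucleotide probe, paired with APE1 for strand incision and turnover, read as fluorescence at 594 nm.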
Description: Inhibition of MPG by quantifying inhibition of MPG-mediated cleavage and dissociation of quenched duplex DNA oligonucleotides, measured as fluorescence at 594 nm. To generate a functional strand incision and increase turn-over this assay is coupled to APE1.
Test [2] has as its target Methyl-CpG-binding domain protein 4 (Homo sapiens) (UniProt O95243).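 Note: MBD4 activity read as fluorescence at 594 nm from cleavage and release of a quenched duplex DNA oligonucleotide, with APE1 coupled to incise the strand and raise turnover.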
Description: Inhibition of MBD4 by quantifying inhibition of MBD4-mediated cleavage and dissociation of quenched duplex DNA oligonucleotides, measured as fluorescence at 594 nm. To generate a functional strand incision and increase turn-over this assay is coupled to APE1.
Test [3] concerns the target Endonuclease 8-like 1 (Homo sapiens) (UniProt Q96FI4).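 Note: fluorescence at 594 nm from quenched duplex DNA oligonucleotides released by NEIL1 cleavage and strand separation, reported as reduction of this enzyme activity.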
Description: Inhibition of NEIL1 by quantifying inhibition of NEIL1-mediated cleavage and dissociation of quenched duplex DNA oligonucleotides, measured as fluorescence at 594 nm.
Test [4] addresses N-glycosylase/DNA lyase (Homo sapiens) (UniProt O15527).
Description: Inhibition of OGG1 by quantifying inhibition of OGG1-mediated cleavage and dissociation of quenched duplex DNA oligonucleotides, measured as fluorescence at 594 nm. To generate a functional strand incision and increase turn-over this assay is coupled to APE1.
For test [5], the target named is G/T mismatch-specific thymine DNA glycosylase (Homo sapiens) (UniProt Q13569).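 Note: human TDG cleavage of quenched duplex DNA oligonucleotides coupled to APE1, strand release read as fluorescence at 594 nm, inhibition of TDG activity.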
Chain of G/T mismatch-specific thymine DNA glycosylase (Homo sapiens) (Q13569 whole entry): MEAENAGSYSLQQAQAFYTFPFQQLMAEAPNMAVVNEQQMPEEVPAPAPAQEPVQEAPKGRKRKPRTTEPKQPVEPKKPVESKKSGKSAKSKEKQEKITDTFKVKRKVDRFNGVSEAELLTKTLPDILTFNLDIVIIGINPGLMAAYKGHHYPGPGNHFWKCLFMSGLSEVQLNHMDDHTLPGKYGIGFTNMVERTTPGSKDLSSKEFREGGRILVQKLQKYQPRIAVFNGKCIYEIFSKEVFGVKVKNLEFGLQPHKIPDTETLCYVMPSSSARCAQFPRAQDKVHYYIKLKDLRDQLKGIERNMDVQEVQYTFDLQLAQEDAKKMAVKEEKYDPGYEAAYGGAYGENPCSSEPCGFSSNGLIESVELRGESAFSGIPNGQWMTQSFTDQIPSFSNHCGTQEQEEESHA
Description: Inhibition of TDG by quantifying inhibition of TDG-mediated cleavage and dissociation of quenched duplex DNA oligonucleotides, measured as fluorescence at 594 nm. To generate a functional strand incision and increase turn-over this assay is coupled to APE1.
Test [6] deals with Uracil-DNA glycosylase (Homo sapiens) (UniProt P13051).
Chain of Uracil-DNA glycosylase (Homo sapiens) (P13051 whole entry): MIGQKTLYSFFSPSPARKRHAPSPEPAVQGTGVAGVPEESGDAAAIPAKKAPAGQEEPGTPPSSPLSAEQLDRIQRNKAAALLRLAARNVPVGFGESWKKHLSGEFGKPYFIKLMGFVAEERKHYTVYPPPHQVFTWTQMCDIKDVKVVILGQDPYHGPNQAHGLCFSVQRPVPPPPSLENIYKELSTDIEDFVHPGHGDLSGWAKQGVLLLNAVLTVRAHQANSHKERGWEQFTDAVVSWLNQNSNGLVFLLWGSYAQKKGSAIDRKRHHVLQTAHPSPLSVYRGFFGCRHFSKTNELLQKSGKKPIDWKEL
Description: Inhibition of UNG by quantifying inhibition of UNG-mediated cleavage and dissociation of quenched duplex DNA oligonucleotides, measured as fluorescence at 594 nm. To generate a functional strand incision and increase turn-over this assay is coupled to APE1.
The target in test [7] is T1, Adenine DNA glycosylase (Homo sapiens) (UniProt Q9UIF7).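 Note: human MUTYH activity read as 594 nm fluorescence from cleavage and release of a quenched DNA duplex, coupled with APE1 for strand incision, lower signal meaning inhibition.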
T1 sequence (whole entry): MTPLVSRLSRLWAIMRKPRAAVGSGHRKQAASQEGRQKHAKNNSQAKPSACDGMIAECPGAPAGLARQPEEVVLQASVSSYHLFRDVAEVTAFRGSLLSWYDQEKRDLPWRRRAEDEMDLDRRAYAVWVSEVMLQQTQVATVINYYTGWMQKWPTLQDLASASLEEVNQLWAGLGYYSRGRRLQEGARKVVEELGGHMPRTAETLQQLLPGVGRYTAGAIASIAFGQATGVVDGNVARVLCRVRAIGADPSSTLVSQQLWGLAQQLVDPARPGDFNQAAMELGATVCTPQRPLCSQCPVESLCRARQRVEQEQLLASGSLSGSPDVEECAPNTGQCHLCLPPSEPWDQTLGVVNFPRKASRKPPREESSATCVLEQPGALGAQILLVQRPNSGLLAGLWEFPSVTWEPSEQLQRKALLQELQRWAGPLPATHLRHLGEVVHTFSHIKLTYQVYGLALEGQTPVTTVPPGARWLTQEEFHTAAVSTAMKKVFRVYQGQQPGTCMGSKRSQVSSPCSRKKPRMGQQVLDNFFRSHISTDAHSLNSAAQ
Description: Inhibition of MUTYH by quantifying inhibition of MUTYH-mediated cleavage and dissociation of quenched duplex DNA oligonucleotides, measured as fluorescence at 594 nm. To generate a functional strand incision and increase turn-over this assay is coupled to APE1.

The target in test [8] is T2, Endonuclease III-like protein 1 (Homo sapiens) (UniProt P78549).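 Note: enzyme assay tracking NTHL1 cutting and release of a quenched double-stranded DNA oligo substrate, read as fluorescence at 594 nm.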
T2 sequence (whole entry): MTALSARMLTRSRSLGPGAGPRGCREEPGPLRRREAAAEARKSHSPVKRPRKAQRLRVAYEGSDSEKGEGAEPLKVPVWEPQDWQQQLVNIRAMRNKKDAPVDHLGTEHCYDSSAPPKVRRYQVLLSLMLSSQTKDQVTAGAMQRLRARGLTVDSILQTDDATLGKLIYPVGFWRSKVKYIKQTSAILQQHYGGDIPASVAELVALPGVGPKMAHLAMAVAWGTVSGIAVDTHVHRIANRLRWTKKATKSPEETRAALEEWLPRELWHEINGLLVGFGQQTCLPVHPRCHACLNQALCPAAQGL
Description: Inhibition of NTHL1 by quantifying inhibition of NTHL1-mediated cleavage and dissociation of quenched duplex DNA oligonucleotides, measured as fluorescence at 594 nm.

The target in test [9] is T3, Endonuclease 8-like 2 (Homo sapiens) (UniProt Q969S2).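 Note: fluorescence at 594 nm reports NEIL2 cutting and release of a quenched double-stranded DNA oligo substrate, reduced signal read as inhibition.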
T3 sequence (whole entry): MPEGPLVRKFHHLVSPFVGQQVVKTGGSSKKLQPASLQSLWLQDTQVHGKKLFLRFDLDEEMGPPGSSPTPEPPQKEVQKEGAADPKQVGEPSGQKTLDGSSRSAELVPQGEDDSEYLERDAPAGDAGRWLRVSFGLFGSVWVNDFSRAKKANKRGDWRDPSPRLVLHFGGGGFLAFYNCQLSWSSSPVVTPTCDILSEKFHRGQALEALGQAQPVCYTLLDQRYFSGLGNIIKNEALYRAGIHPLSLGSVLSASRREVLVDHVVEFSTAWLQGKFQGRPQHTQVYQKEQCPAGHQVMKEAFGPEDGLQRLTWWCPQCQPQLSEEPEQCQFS
Description: Inhibition of NEIL2 by quantifying inhibition of NEIL2-mediated cleavage and dissociation of quenched duplex DNA oligonucleotides, measured as fluorescence at 594 nm.

SMILES strings stand for the structures. *1 amine or outer side, *2 acyl side, *3 side chain or, on linkers, in order; H or OH if unused. Where a SMILES comes first, the peptide text is derived from it. Bridges are numbered along the chain shown (N, C = ends). X1 = O=C(CCC[*:2])[*:1]

Chain of N-glycosylase/DNA lyase (Homo sapiens) (O15527 whole entry): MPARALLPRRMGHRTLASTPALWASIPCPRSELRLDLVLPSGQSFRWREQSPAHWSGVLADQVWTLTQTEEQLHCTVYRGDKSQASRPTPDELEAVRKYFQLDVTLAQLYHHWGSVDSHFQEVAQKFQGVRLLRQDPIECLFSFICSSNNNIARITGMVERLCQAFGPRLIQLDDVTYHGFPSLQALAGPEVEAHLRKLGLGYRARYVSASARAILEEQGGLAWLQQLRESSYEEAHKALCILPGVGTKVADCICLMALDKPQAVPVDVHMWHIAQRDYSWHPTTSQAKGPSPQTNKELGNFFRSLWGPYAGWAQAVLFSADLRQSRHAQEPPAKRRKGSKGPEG
Chain of DNA-3-methyladenine glycosylase (Homo sapiens) (P29372 whole entry, the tested form may be a part): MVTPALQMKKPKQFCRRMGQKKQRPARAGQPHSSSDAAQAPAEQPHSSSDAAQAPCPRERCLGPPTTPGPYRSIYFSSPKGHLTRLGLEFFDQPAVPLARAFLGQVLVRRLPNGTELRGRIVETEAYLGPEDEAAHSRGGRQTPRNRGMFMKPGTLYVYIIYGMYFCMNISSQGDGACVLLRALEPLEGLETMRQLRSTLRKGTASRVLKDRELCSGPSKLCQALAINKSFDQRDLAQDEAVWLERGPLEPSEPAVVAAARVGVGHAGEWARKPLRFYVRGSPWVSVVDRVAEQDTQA
Chain of Methyl-CpG-binding domain protein 4 (Homo sapiens) (O95243 whole entry, the tested form may be a part): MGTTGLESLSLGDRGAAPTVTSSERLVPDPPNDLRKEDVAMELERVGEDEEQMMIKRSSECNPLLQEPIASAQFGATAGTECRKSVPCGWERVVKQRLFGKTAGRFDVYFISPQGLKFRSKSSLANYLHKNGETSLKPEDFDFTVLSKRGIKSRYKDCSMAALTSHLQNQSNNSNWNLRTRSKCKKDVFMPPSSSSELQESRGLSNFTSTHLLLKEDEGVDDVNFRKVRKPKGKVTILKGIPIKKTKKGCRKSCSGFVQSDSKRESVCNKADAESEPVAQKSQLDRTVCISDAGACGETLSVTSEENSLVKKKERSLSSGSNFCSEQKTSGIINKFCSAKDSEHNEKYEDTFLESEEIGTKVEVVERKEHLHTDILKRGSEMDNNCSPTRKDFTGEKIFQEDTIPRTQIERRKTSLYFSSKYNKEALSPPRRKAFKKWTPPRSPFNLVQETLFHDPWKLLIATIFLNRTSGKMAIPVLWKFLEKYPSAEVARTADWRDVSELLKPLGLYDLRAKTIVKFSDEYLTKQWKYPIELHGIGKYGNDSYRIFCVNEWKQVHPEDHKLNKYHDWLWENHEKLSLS
Chain of Endonuclease 8-like 1 (Homo sapiens) (Q96FI4 whole entry): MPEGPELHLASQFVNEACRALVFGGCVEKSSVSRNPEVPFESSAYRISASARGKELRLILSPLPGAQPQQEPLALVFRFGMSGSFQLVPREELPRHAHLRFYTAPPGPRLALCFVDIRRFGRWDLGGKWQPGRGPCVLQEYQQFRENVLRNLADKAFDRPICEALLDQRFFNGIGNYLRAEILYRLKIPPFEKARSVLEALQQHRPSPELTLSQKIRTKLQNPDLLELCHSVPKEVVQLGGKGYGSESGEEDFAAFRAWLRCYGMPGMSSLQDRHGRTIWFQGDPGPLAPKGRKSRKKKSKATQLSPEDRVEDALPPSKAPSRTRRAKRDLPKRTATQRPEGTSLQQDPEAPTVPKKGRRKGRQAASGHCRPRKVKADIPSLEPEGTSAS

`CCCN[C@H]1CCc2nc(N)sc2C1`: the inhibition is -0.406% in test [1]; 9.06% in test [2]; -3.55% in test [3]; -6.43% in [4]; 19.3% in test [5]; -5.95% in [6]. For the same compound, the results for the inhibition in test [7] and in [8] were 13.4% and 22%, respectively.
Consider `Cc1nccn1CC1CCc2c(c3ccccc3n2C)C1=O` (stereo not given), for which the inhibition in test [1] is 13.8%; in test [2], 17%; in test [3], 6.23%; in test [4], -7.85%; in [5] it was 0.598%; in test [6], -9.34%. Also, the inhibition in test [7] is 19%; in [8] it was 22%.
Regarding `Cn1c(=O)n(CCCO)c(=O)c2c1nc(Oc1cccc(Cl)c1)n2Cc1ccc(Cl)cc1`, the inhibition in [1] was 11.6%; in test [2], 23.2%; in test [3], 2.53%; in test [4], -1.16%; in test [5], 8.76%; in test [6] it was 0.363%. Also, the inhibition in test [7] is 15.9%; in [8], 12.1%.
With `Nc1nc(Nc2ccccc2)nc2c1ncn2[C@@H]1O[C@H](CO)[C@@H](O)[C@H]1O`, the inhibition is -7.65% in [1]; 11.6% in [2]; -6.51% in test [3]; 6.96% in [4]; 10.5% in test [5]; -5.2% in [6]. Also, the results for the inhibition in [7] and in test [8] were -1.27% and 1.39%, respectively.
For the compound `CC(C)C[C@@H](NC(=O)[C@H](Cc1ccccc1)NC(=O)CNC(=O)[C@@H](C)NC(=O)[C@@H](N)Cc1ccc(O)cc1)C(=O)O`, the inhibition in [1] was -5.23%; in test [2], 20%; in [4] it was -5.5%; in [5], 20.9%; in test [6] it was -7.3%; in test [7] it was 18.5%. Besides, the inhibition in test [8] is 10.5%.
Consider `CS(=O)(=O)Nc1c(O)ccc2c1CCCC2C1=NCCN1` (stereo not given), for which the inhibition was 2.87% in test [1]; 17.6% in test [2]; 2.08% in [3]; -9.24% in [4]; -0.654% in test [5]; -0.201% in [6]. Moreover, the inhibition came out at 23.1% in test [7] and 13.8% in test [8].
Regarding `CN1CCN2c3ccccc3Cc3ccccc3C2C1` (stereo not given), the inhibition was 9.97% in [1]; 11.7% in test [2]; -1.32% in test [3]; -6.17% in test [4]; 1.8% in test [5]; -6.73% in test [6]. Further, the inhibition in test [7] was 1.87%; in test [8], -6.86%.
As for `COc1cc(C(C)C)c(Oc2cnc(NC(CO)CO)nc2N)cc1I`, the inhibition is -3.99% in test [1]; -6.99% in [2]; -4.73% in [3]; -8.24% in [4]; -1.74% in test [5]; -4.17% in [6]. Also, the inhibition came out at 2% in test [7] and 6.35% in [8].
As for `CN(C)CCn1cc(S(=O)(=O)c2cccc(F)c2)c2cccnc21`, the inhibition in test [1] is 4.26%; in test [2], 7%; in [3], -6.66%; in [4], -9.57%; in [5] it was 2.84%; in test [6], -6.74%. In addition, the inhibition in test [7] came to 1.09%; in [8], 10.5%.
Take `CCCCC1=NC2(CCCC2)C(=O)N1Cc1ccc(-c2ccccc2-c2nnn[nH]2)cc1`: the inhibition in test [1] is 12.4%; in test [2] it was 9.56%; in test [3] it was 0.241%; in test [4], -0.701%; in [5], 11.8%; in test [7], 12.9%. For the same compound, the inhibition in test [9] is 5.76%; in [8] it was -1.01%.
Regarding `O=c1ccc2c(OCCCCOc3ccccc3)c3ccoc3cc2o1`, the inhibition in test [1] was 29.9%; in test [2], 11.1%; in test [3] it was -4.29%; in [4], 3.75%; in test [5], -7.24%; in test [6], -5.58%. Besides, the inhibition in [7] came out at 3.71%; in test [8], 3.87%.
As for `C[N+]1(C)[C@@H]2C[C@@H](OC(=O)C(O)(c3cccs3)c3cccs3)C[C@H]1[C@@H]1O[C@@H]12`, the inhibition is -7.84% in test [1]; -8.5% in test [2]; 8.84% in test [3]; -4.25% in [4]; -0.0311% in [5]; 9.11% in [7]. For the same compound, the inhibition in test [9] worked out at 2.01%; in test [8] it was 7.05%.
In the case of `O=C(O)CCC/C=C\C[C@H]1C(=O)C[C@@H](O)[C@@H]1/C=C/[C@@H](O)CCc1ccccc1`, the inhibition is -3.36% in test [1]; 13.3% in test [2]; -9.47% in [3]; -5.63% in test [4]; 20.6% in test [5]; -6.21% in [6]. Moreover, the figures for the inhibition in test [7] and in [8] were 15.1% and 14.6%, respectively.
On to `CC1(C)SSC(C)(C)[C@@H](NC(=O)[C@@H](N)Cc2ccc(O)cc2)C(=O)NCC(=O)N[C@@H](Cc2ccccc2)C(=O)N[C@H]1C(=O)O`, for which the inhibition in test [1] is 7.58%; in test [2], -7.23%; in [3] it was 8.1%; in [4] it was -3.29%; in test [5], 10.6%; in test [7], 1.3%. The inhibition in test [9] was found to be 9.5%; in test [8], 17.3%.
On to `CC[C@H](C)[C@@H]1NC(=O)[C@H](Cc2ccc(OC)cc2)NC(=O)CCCSC[C@@H](C(=O)N2CCC[C@H]2C(=O)N[C@@H](CC(C)C)C(=O)NCC(N)=O)NC(=O)[C@H](CC(N)=O)NC(=O)[C@H](CCC(N)=O)NC1=O` (Y(Me)IQNCPLG-NH2; linker N-5 via X1), for which the inhibition in test [1] is -9.15%; in test [2] it was -5.48%; in test [3] it was -0.0556%; in test [4], -9.58%; in test [5], -1.9%; in test [7], -1%. Further, the inhibition in test [9] was -7.22%; in test [8], 33.4%.
`CCCCN(CCCC)C(=O)CN1C[C@@H](c2ccc3c(c2)OCO3)[C@H](C(=O)O)[C@H]1c1ccc(OC)cc1`: the inhibition in test [1] is 19.8%; in test [2], 29.1%; in [3], -5.1%; in test [4] it was 2.58%; in test [5] it was 32.4%; in test [7] it was 19.5%. Besides, the inhibition is -2.98% in test [9] and 4.86% in test [8].
As to `N=C(N)NCCC[C@H](NC(=O)COCC(c1ccccc1)c1ccccc1)C(=O)O`, the inhibition was 6.97% in test [1]; -5.83% in test [2]; 7.21% in test [3]; -5.82% in test [4]; -4.14% in [5]; 3.99% in test [7]. Further, the inhibition is -7.47% in test [9] and 9.99% in test [8].
In the case of `CO[C@H]1CC[C@@H](C(=O)c2ccc3nc4c(cc3c2)CCCO4)CC1`, the inhibition in [1] was -2.23%; in test [2] it was -6.79%; in [3], 1.35%; in test [4] it was -3.26%; in [5], 4.03%; in test [7], -9.06%. Moreover, the inhibition in [9] was 8.38%; in test [8], -6.5%.
As for `CCCCCCCC/C=C\CCCCCCCC(=O)NCc1ccc(O)c(OC)c1`, the inhibition was -5.12% in test [1]; 18.2% in test [2]; -7.56% in test [4]; 13.7% in test [5]; -4.89% in test [6]; 5.55% in test [7]. In test [8], the inhibition is -7.69%.

The values are drawn from ChEMBL document CHEMBL5665443, “Enzyme Inhibitor Single Concentration assay results for EUbOPEN Chemogenomics Library” (2024).
